Assay results from US10160748B2 (AbbVie Inc., priority 2015, dated 2018).

Target: TNFα trimer (Homo sapiens, UniProt P01375)
Assay: TNFα FP Competitive Binding Assay
Conditions: FP binding assay; 20 nM TNFα trimer, 1 nM OregonGreen488 probe; read-out: TNF IC50
Summary of the method: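 Fluorescence polarization competition: 20 nM TNFα trimer with 1 nM fluorescein-labelled probe in HEPES/NaCl/EDTA/Triton X-100 buffer, compound in 12-point 1:3 dilutions (final top 338 μM or 100 μM). Incubated 18-24 h, background-subtracted mP read, variable-slope dose-response fitting.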

TNFα trimer, sequence (P01375 77-233 limits assumed): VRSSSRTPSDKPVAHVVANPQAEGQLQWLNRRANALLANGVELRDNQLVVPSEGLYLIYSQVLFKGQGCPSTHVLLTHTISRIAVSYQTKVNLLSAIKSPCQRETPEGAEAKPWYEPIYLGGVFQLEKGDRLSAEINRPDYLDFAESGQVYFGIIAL

IC50	SMILES
< 1 µM	Cc1ccc(OC(F)F)c(Cn2c3cc(-c4cnc(C(C)(C)CO)nc4)c(F)cc3c(=O)n2C)c1 [Example 17.4]
1 to 10 µM	Cn1c(=O)c2ccc(-c3cnc(N4CC(C5COC5)C4)nc3)cc2n1Cc1ccccc1OC(F)F [Example 2.8]
> 10 µM	Cn1c(=O)c2ccc(-c3cnc(N4CC5(CC5C(=O)O)C4)nc3)cc2n1Cc1ccccc1OC(F)F (centres unmarked) [Example 2.14]
< 1 µM	C[C@@H]1CN(c2ncc(-c3ccc4c(=O)n(C(F)F)n(Cc5ccccc5OC(F)F)c4c3)cn2)CCN1C(=O)CO [Example 24.4]
< 1 µM	Cc1ccc(C(F)(F)F)c(Cn2c3cc(-c4cnc(N5CCN6C(=O)OC[C@H]6C5)nc4)ccc3c(=O)n2C)n1 [Example 19.4]
1 to 10 µM	CC(c1ccccc1OC(F)F)n1c2cc(-c3cnc(N4CCOCC4)nc3)ccc2c(=O)n1C (centres unmarked) [Example 1.5]
< 1 µM	CC[C@@H]1CN(C(C)=O)CCN1c1ncc(-c2ccc3c(=O)n(C)n(Cc4cc(C)ccc4OC(F)F)c3c2)cn1 [Example 20.5]
< 1 µM	Cn1c(=O)c2ccc(-c3cnc(N4CCOCC4)nc3)cc2n1Cc1ccccc1OC(F)F [Example 5, 1-(2-(Difluoromethoxy)benzyl)-2-methyl-6-(2-morpholinopyrimidin-5-yl)-1H-indazol-3(2H)-one]
< 1 µM	CC(=O)N1CCN(c2ncc(-c3ccc4c(=O)n(C)n(Cc5c(CC#N)cccc5OC(F)F)c4c3)cn2)C[C@H]1C [Example 49, (R)-2-(2-((6-(2-(4-Acetyl-3-methylpiperazin-1-yl)pyrimidin-5-yl)-2-methyl-3-oxo-2,3-dihydro-1H-indazol-1-yl)methyl)-3-(difluoromethoxy)phenyl)acetonitrile]
< 1 µM	C[C@@H]1CN(C(=O)CO)CCN1c1ncc(-c2ccc3c(=O)n(C)n(Cc4ccccc4OC(F)F)c3c2F)cn1 [Example 121, (R)-1-(2-(Difluoromethoxy)benzyl)-7-fluoro-6-(2-(4-(2-hydroxyacetyl)-2-methylpiperazin-1-yl)pyrimidin-5-yl)-2-methyl-1H-indazol-3(2H)-one]
< 1 µM	CC(C)[C@@H](N)C(=O)OCC(=O)N1CCN(c2ncc(-c3ccc4c(=O)n(C)n(Cc5ccccc5OC(F)F)c4c3)cn2)C[C@H]1C [Example 14.13]
1 to 10 µM	Cc1ccc(OC(F)F)c(Cn2c3cc(-c4cnc(C(C)(C)CO)nc4)ccc3c(=O)n2C)c1 [Example 22.9]
1 to 10 µM	Cn1c(=O)c2ccc(-c3cnc(CC4(C)COC4)nc3)cc2n1Cc1ccccc1OC(F)F [Example 12, 1-(2-(Difluoromethoxy)benzyl)-2-methyl-6-(2-((3-methyloxetan-3-yl)methyl)pyrimidin-5-yl)-1H-indazol-3(2H)-one]
1 to 10 µM	Cn1c(=O)c2ccc(-c3cnc(NC4CCCOC4)nc3)cc2n1Cc1ccccc1OC(F)F (centres unmarked) [Example 2.21]
< 1 µM	CC(=O)N1CCN(c2ncc(-c3ccc4c(=O)n(C)n(Cc5ccc(C)cc5SC(F)F)c4c3)cn2)C[C@H]1C [Example 82, (R)-6-(2-(4-Acetyl-3-methylpiperazin-1-yl)pyrimidin-5-yl)-1-(2-((difluoromethyl)thio)-4-methylbenzyl)-2-methyl-H-indazol-3(2H)-one]
1 to 10 µM	Cn1c(=O)c2ccc(-c3cnc(C(C)(C)O)nc3)cc2n1Cc1cc(N2CCOCC2)ccc1OC(F)F [Example 125, 1-(2-(Difluoromethoxy)-5-morpholinobenzyl)-6-(2-(2-hydroxypropan-2-yl)pyrimidin-5-yl)-2-methyl-1H-indazol-3(2H)-one]
< 1 µM	Cn1c(=O)c2ccc(-c3cnc(N4CCN5C(=O)OC[C@H]5C4)nc3)cc2n1Cc1cc(CC#N)ccc1OC(F)F [Example 79, (R)-2-(4-(Difluoromethoxy)-3-((2-methyl-3-oxo-6-(2-(3-oxotetrahydro-1H-oxazolo[3,4-a]pyrazin-7(3H)-yl)pyrimidin-5-yl)-2,3-dihydro-1H-indazol-1-yl)methyl)phenyl)acetonitrile]
> 10 µM	Cn1c(=O)c2ncc(-c3cnc(N4CCOCC4)nc3)cc2n1Cc1ccccc1OC(F)F [Example 14, 1-(2-(Difluoromethoxy)benzyl)-2-methyl-6-(2-morpholinopyrimidin-5-yl)-1H-pyrazolo[4,3-b]pyridin-3(2H)-one]
1 to 10 µM	Cc1ccc(OC(F)F)c(Cn2c3nc(-c4cnc(C(C)(C)O)nc4C)ccc3c(=O)n2C)c1 [Example 95, 1-(2-(Difluoromethoxy)-5-methylbenzyl)-6-(2-(2-hydroxypropan-2-yl)-4-methylpyrimidin-5-yl)-2-methyl-1,2-dihydro-3H-pyrazolo[3,4-b]pyridin-3-one]
1 to 10 µM	Cc1cc2c(=O)n(C)n(Cc3ccccc3OC(F)F)c2cc1-c1cnc(N2CCNC(=O)C2)nc1 [Example 13.2]
< 1 µM	Cc1ccc(OC(F)F)c(Cn2c3c(F)c(-c4cnc(C(C)(C)O)nc4C)ccc3c(=O)n2C)c1 [Example 45, 1-(2-(Difluoromethoxy)-5-methylbenzyl)-7-fluoro-6-(2-(2-hydroxypropan-2-yl)-4-methylpyrimidin-5-yl)-2-methyl-1H-indazol-3(2H)-one]
< 1 µM	Cc1ccc(OC(F)F)c(Cn2c3cc(-c4cnc(C(C)(C)O)nc4C)ccc3c(=O)n2C)c1 [Example 22.5]

IC50	SMILES
1 to 10 µM	Cn1c(=O)c2ccc(-c3cnc(NCC4CNC(=O)C4)nc3)cc2n1Cc1ccccc1OC(F)F (centres unmarked) [Example 2.7]
< 1 µM	Cn1c(=O)c2ccc(-c3cnc(N[C@@H]4CCNC(=O)C4)nc3)cc2n1Cc1cc(CO)ccc1OC(F)F (single isomer, unassigned) [Example 26]
> 10 µM	Cn1c(=O)c2ccc(-c3cnc(N4CCOCC4)nc3)cc2n1CCc1ccccc1 [Example 1.4]
< 1 µM	Cn1c(=O)c2ccc(-c3cnc(N4CCN5C(=O)NC[C@H]5C4)nc3)cc2n1Cc1c(Cl)ccc2c1COC2 [Example 29.4]
< 1 µM	Cc1ccc(OC(F)F)c(Cn2c3cc(-c4cnc(N5CCC(O)CC5)nc4)ccc3c(=O)n2C)c1 [Example 22, 1-(2-(Difluoromethoxy)-5-methylbenzyl)-6-(2-(4-hydroxypiperidin-1-yl)pyrimidin-5-yl)-2-methyl-1H-indazol-3(2H)-one]
< 1 µM	Cn1c(=O)c2ccc(-c3cnc(C(C)(C)O)nc3)cc2n1Cc1cc(NC2CCCc3c[nH]nc32)ccc1Cl (centres unmarked) [Example 44, 1-(2-Chloro-5-((4,5,6,7-tetrahydro-1H-indazol-7-yl)amino)benzyl)-6-(2-(2-hydroxypropan-2-yl)pyrimidin-5-yl)-2-methyl-1H-indazol-3(2H)-one]
> 10 µM	Cn1c(=O)c2ccc(-c3cc(N4CCOCC4)ncc3Cl)cc2n1Cc1ccccc1OC(F)F [Example 4.1]
1 to 10 µM	Cn1c(=O)c2ccc(-c3ccc(N4CCNC(=O)C4)nc3)cc2n1Cc1ccccc1OC(F)F [Example 5.3]
< 1 µM	C[C@@H]1CN(c2ncc(-c3cc4c(cc3F)c(=O)n(C)n4Cc3ccccc3OC(F)F)cn2)CCN1C(=O)CO [Example 59, (R)-1-(2-(Difluoromethoxy)benzyl)-5-fluoro-6-(2-(4-(2-hydroxyacetyl)-3-methylpiperazin-1-yl)pyrimidin-5-yl)-2-methyl-1H-indazol-3(2H)-one]
1 to 10 µM	Cn1c(=O)c2ccc(-c3cnc(C(C)(C)O)nc3)cc2n1Cc1cn(Cc2ccnnc2)cc1C(F)(F)F [Example #128, 6-(2-(2-Hydroxypropan-2-yl)pyrimidin-5-yl)-2-methyl-1-((1-(pyridazin-4-ylmethyl)-4-(trifluoromethyl)-1H-pyrrol-3-yl)methyl)-1H-indazol-3(2H)-one]
< 1 µM	Cc1ccc(C(F)(F)F)c(Cn2c3cc(-c4cnc(N5CCN6C(=O)NC[C@H]6C5)nc4)ccc3c(=O)n2C)n1 [Example 19.2]
1 to 10 µM	Cn1c(=O)c2ccc(-c3cnc(C(C)(C)O)nc3)cc2n1Cc1cc(CC#N)ccc1OC(F)F [Example 26.8]
1 to 10 µM	Cc1ccc(OC(F)F)c(Cn2c3cc(-c4cnn5c([C@H](C)O)cnc5c4)ccc3c(=O)n2C)c1 (single isomer, unassigned) [Example 108]
1 to 10 µM	Cn1c(=O)c2ccc(-c3cnc(N4CCOCC4)nc3)cc2n1Cc1ccccc1C#N [Example 1.12]
< 1 µM	C[C@@H]1CN(c2ncc(-c3ccc4c(=O)n(C)n(Cc5ccccc5OC(F)F)c4c3)cn2)CCN1C(=O)[C@@H](O)CO [Example 38, 1-(2-(Difluoromethoxy)benzyl)-6-(2-((R)-4-((S)-2,3-dihydroxypropanoyl)-3-methylpiperazin-1-yl)pyrimidin-5-yl)-2-methyl-1H-indazol-3(2H)-one]
< 1 µM	Cc1ccc(OC(F)F)c(Cn2c3cc(-c4cnc(N5CCN6C(=O)NCC6C5)nc4)ccc3c(=O)n2C)c1 (single isomer, unassigned) [Example 8]
< 1 µM	CC(=O)N1CCN(c2ncc(-c3ccc4c(=O)n(C)n(Cc5c(CO)cccc5OC(F)F)c4c3)cn2)C[C@H]1C [Example 48, (R)-6-(2-(4-Acetyl-3-methylpiperazin-1-yl)pyrimidin-5-yl)-1-(2-(difluoromethoxy)-6-(hydroxymethyl)benzyl)-2-methyl-1H-indazol-3(2H)-one]
> 10 µM	Cn1c(=O)c2ccc(-c3ccnc(N4CCOCC4)c3)cc2n1Cc1ccccc1OC(F)F [Example 5.6]
< 1 µM	C[C@@H]1CN(c2ncc(-c3ccc4c(=O)n(C)n(Cc5ccccc5OC(F)F)c4c3C#N)cn2)CCN1C(=O)CO [Example 23.3]
< 1 µM	CC(=O)N1CCN(c2ncc(-c3ccc4c(=O)n(C)n(Cc5nc(C)ccc5Cl)c4c3)cn2)C[C@H]1C [Example 105, (R)-6-(2-(4-Acetyl-3-methylpiperazin-1-yl)pyrimidin-5-yl)-1-((3-chloro-6-methylpyridin-2-yl)methyl)-2-methyl-1,2-dihydro-3H-indazol-3-one]
< 1 µM	Cc1ccc(OC(F)F)c(Cn2c3cc(-c4cnc(N5CCN6C(=O)OC[C@H]6C5)nc4)ccc3c(=O)n2C)c1 [Example 22.12]
< 1 µM	COc1c(-c2cnc(N3CCN(C(=O)CO)[C@H](C)C3)nc2)ccc2c(=O)n(C)n(Cc3ccccc3Cl)c12 [Example 24.9]
